Converted amounts (≈) assume the structure as drawn. Read-outs that look alike come from different tables or passages of the source.

For the experiment, the system named is Porphyromonas gingivalis. As to the kind of experiment: minimum inhibitory concentration (MIC) assay against P. gingivalis. It counts as cell-based. The protocol:
To determine the ability of the cannabinoid compounds described herein to reduce, or eliminate, P. gingivalis a minimum inhibitory concentration (“MIC”) assay was performed. The assay was performed by Charles River Laboratories International (Wilmington, Mass.) in accordance with industry standards.

The mark [1] stands for this setting: Porphyromonas gingivalis, read-out: minimum inhibitory concentration (MIC) against P. gingivalis.
The mark [2] stands for this setting: Porphyromonas gingivalis; against P. gingivalis; Table 1; read-out: MIC.
Where [3] appears, read: Porphyromonas gingivalis; read-out: minimum inhibitory concentration (MIC) against P. gingivalis.

On to `CCCc1cc(O)c(C/C=C(\C)CCC=C(C)C)c(O)c1C(=O)O` [CBGVA, cannabigerovarinic acid], for which the “minimum inhibitory concentration (MIC) against P. gingivalis” value was 25 µg/mL (≈ 75.2 µM). The molecule also came in with an MIC (against P. gingivalis; Table 1) of 25 µg/mL (≈ 75.2 µM).
On to `CCCCCc1cc(O)c(C/C=C(\C)CCC=C(C)C)c(O)c1C(=O)O` [CBGA, cannabigerolic acid], for which the MIC is less than 1 µg/mL under setting [1] and no more than 0.097 µg/mL under setting [2].
`C=C(C)[C@@H]1CCC(C)=C[C@H]1c1c(O)cc(CCCCC)c(C(=O)O)c1O` [CBDA, cannabidiolic acid]: the MIC was less than 1 µg/mL under setting [1] and 0.39 µg/mL (≈ 1.09 µM) under setting [2].
`CCCCCc1cc2c(c(O)c1C(=O)O)C=CC(C)(CCC=C(C)C)O2` (stereo not drawn) [CBCA, cannabichromenic acid]: the “minimum inhibitory concentration (MIC) against P. gingivalis” value turned out to be 3.125 µg/mL (≈ 8.72 µM). The same molecule came in with an MIC (against P. gingivalis; Table 1) of 3.125 µg/mL (≈ 8.72 µM).
Consider `CCCc1cc(O)c(C/C=C(\C)CCC=C(C)C)c(O)c1` [CBGV, cannabigerivarin], for which the “minimum inhibitory concentration (MIC) against P. gingivalis” value was found to be 3.125 µg/mL (≈ 10.8 µM). Moreover, the MIC (against P. gingivalis; Table 1) stood at 3.125 µg/mL (≈ 10.8 µM).
Turning to `CCCCc1cc(O)c(C/C=C(\C)CCC=C(C)C)c(O)c1C(=O)O` [CBGA-C4, cannabigerolic acid butyl], the “minimum inhibitory concentration (MIC) against P. gingivalis” value turned out to be 6.25 µg/mL (≈ 18 µM). Besides, the MIC (against P. gingivalis; Table 1) is 6.25 µg/mL (≈ 18 µM).
In the case of `CCCCc1cc(O)c(CC=C(C)CCC=C(C)C)c(O)c1` [CBG-C4, cannabigerol butyl], the “minimum inhibitory concentration (MIC) against P. gingivalis” value was 3.125 µg/mL (≈ 10.3 µM). For the setting “against P. gingivalis; Table 1”, this molecule returned an MIC of 3.125 µg/mL (≈ 10.3 µM).
`CCCCCc1cc(O)c2c(c1)OC1(C)CCC3C1C2C3(C)C` (stereo not drawn) [CBL, cannabicyclol]: the MIC reads like this: under setting [2], greater than 200 µg/mL; under setting [3], greater than 200 µg/mL.
For the molecule (+)-cannabidiol [(+)-CBD], the MIC (against P. gingivalis; Table 1) was found to be 0.78 µg/mL.
Regarding `C=C(C)[C@@H]1CCC(C)=C[C@H]1c1c(O)cc(CCCC)cc1O` [CBD-C4, cannabidol-C4], the “minimum inhibitory concentration (MIC) against P. gingivalis” value came to 3.125 µg/mL (≈ 10.4 µM). Besides, the MIC (against P. gingivalis; Table 1) stood at 3.125 µg/mL (≈ 10.4 µM).
Consider `CCCCCc1cc(O)c(C/C=C(\C)CCC=C(C)C)c(O)c1` [CBG, cannabigerol], for which the MIC is, setting by setting: under setting [1], less than 1 µg/mL; under setting [2], 0.78 µg/mL (≈ 2.46 µM).
With `CCCCCc1cc(O)c2c(c1)OC(C)(C)c1ccc(C)cc1-2` [CBN, cannabinol], the MIC is, setting by setting: under setting [2], 3.12 µg/mL (≈ 10.1 µM); under setting [3], 3.12 µg/mL (≈ 10.1 µM).
As for `CCCCCc1cc2c(c(O)c1C(=O)O)-c1cc(C)ccc1C(C)(C)O2` [CBNA, cannabinolic acid], the “minimum inhibitory concentration (MIC) against P. gingivalis” value turned out to be 3.125 µg/mL (≈ 8.82 µM). The molecule further yielded an MIC (against P. gingivalis; Table 1) of 3.125 µg/mL (≈ 8.82 µM).
Take `C=C(C)[C@@H]1CCC(C)=C[C@H]1c1c(O)cc(CCCCC)cc1O` [CBD, cannabidol]: the “minimum inhibitory concentration (MIC) against P. gingivalis” value was 3.125 µg/mL (≈ 9.94 µM). This molecule yielded an MIC (against P. gingivalis; Table 1) of 3.125 µg/mL (≈ 9.94 µM).
As for `C=C(C)[C@@H]1CCC(C)=C[C@H]1c1c(O)cc(C)cc1O` [CBD-C1, Cannabidiorcol], the “minimum inhibitory concentration (MIC) against P. gingivalis” value was 100 µg/mL (≈ 387 µM). For the setting “against P. gingivalis; Table 1”, the MIC was 100 µg/mL (≈ 387 µM).
`C=C(C)[C@@H]1CCC(C)=C[C@H]1c1c(O)cc(CCC)cc1O` [CBDV, cannabidivarin]: the MIC under setting [2] worked out at 3.12 µg/mL (≈ 10.9 µM) and the MIC under setting [3] is 3.12 µg/mL (≈ 10.9 µM).
As for `C=C(C)[C@@H]1CCC(C)=C[C@H]1c1c(O)cc(CC)cc1O` [CBD-C2, Cannabidol-C2], the “minimum inhibitory concentration (MIC) against P. gingivalis” value worked out at 6.25 µg/mL (≈ 22.9 µM). Further, the MIC (against P. gingivalis; Table 1) was 6.25 µg/mL (≈ 22.9 µM).
Regarding `C=C(C)[C@@H]1CCC(C)=C[C@H]1c1c(O)cc(CCC)c(C(=O)O)c1O` [CBDVA, cannabidivarinic acid], the “minimum inhibitory concentration (MIC) against P. gingivalis” value stood at 25 µg/mL (≈ 75.7 µM). For the same molecule, the MIC (against P. gingivalis; Table 1) was found to be 25 µg/mL (≈ 75.7 µM).
`CCCCCc1cc(O)c2c(c1)OC(C)(CCC=C(C)C)C=C2` (stereo not drawn) [CBC, cannabichromene]: the MIC reads like this: under setting [2], 1.56 µg/mL (≈ 4.96 µM); under setting [3], 1.56 µg/mL (≈ 4.96 µM).
Consider `CCCCCc1cc2c(c(O)c1C(=O)O)C1C3C(CCC3(C)O2)C1(C)C` (stereo not drawn) [CBLA, cannabicyclolic acid], for which the “minimum inhibitory concentration (MIC) against P. gingivalis” value is 3.125 µg/mL (≈ 8.72 µM). For the same molecule, the MIC (against P. gingivalis; Table 1) was 3.125 µg/mL (≈ 8.72 µM).

The record behind these values is patent US20230037975A1, “USE OF C[…] IN ORAL CARE COMPOSITIONS TO INHIBIT THE GROWTH OF P. GINGIVALIS” (Demetrix, Inc., priority 2021, published 2023).
